The text below walks through data of the NIST ThermoML archive (doi:10.1016/j.fluid.2014.03.001).

± gives the expanded uncertainty stated by the source.

The conditions of this data set: Crystal 1; DTA.

On to `CCCCCCCC/C=C\CCCCCCCC(=O)OCC` [ethyl (Z)-9-octadeceneoate], for which the Normal melting temperature is -18.8 ± 0.7 °C.
For `CCCCCCCCCCCCCCCCCC(=O)OCC` [ethyl octadecanoate], the Normal melting temperature is 34.7 ± 0.7 °C.
As for `CCCCCCCCCCCCCC(=O)OCC` [ethyl tetradecanoate], the figure is 14.2 ± 0.5 °C.
